Experimental data taken from patent publication US12545673B2, “Imidazopyridine derivative and pharmaceutical composition comprising same as active ingredient” (TSD LIFE SCIENCES CO., LTD., priority 2019, dated 2026).
Read-outs that look alike come from different tables or passages of the source.

Tests used:
[1] = test system: acute myeloid leukemia cell line U937; experiment: Cancer cell proliferation inhibitory activity evaluation 2 (CCK-8), U937; assay type: cell-based; conditions: Homo sapiens, read-out: Cancer cell proliferation inhibitory activity U937
Description: (§1) In order to identify whether the compounds have anticancer activity, the acute myeloid leukemia cell line U937, the acute lymphoblastic leukemia cell line Jurkat, the gastric cancer cell lines AGS, […], and the human lung cancer cell line A549 were used. The cell line was cultured using RPMI-1640 medium (U937, Jurkat, AGS, A549) or DMEM (Hs746T) medium containing 10% fetal bovine serum. Welgene products were used as the medium, and hyclone products were used for fetal bovine serum, and 1% of antibiotics for cell culture from Gibco were used as the culture medium.

[2] = test system: acute lymphoblastic leukemia cell line Jurkat; experiment: Cancer cell proliferation inhibitory activity evaluation 2 (CCK-8), Jurkat; assay type: cell-based; conditions: Homo sapiens
Description: as §1

[3] = test system: gastric cancer cell line AGS; experiment: Cancer cell proliferation inhibitory activity evaluation 2 (CCK-8), AGS; assay type: cell-based; conditions: Homo sapiens, read-out: Cancer cell proliferation inhibitory activity AGS
Description: as §1

[4] = test system: gastric cancer cell line Hs746T; experiment: Cancer cell proliferation inhibitory activity evaluation 2 (CCK-8), Hs746T; assay type: cell-based; conditions: Homo sapiens
Description: as §1

[5] = test system: human lung cancer cell line A549; experiment: Cancer cell proliferation inhibitory activity evaluation 2 (CCK-8), A549; assay type: cell-based
Description: as §1

MLK3 = MLK3 (Homo sapiens (Human), UniProt Q16584); experiment: Evaluation of inhibitory activity of enzyme units, MLK3 ([γ-33P]-ATP filter assay); conditions: read-out: IC50(nM) MLK3
MLK3, sequence (Q16584 whole entry, looked up): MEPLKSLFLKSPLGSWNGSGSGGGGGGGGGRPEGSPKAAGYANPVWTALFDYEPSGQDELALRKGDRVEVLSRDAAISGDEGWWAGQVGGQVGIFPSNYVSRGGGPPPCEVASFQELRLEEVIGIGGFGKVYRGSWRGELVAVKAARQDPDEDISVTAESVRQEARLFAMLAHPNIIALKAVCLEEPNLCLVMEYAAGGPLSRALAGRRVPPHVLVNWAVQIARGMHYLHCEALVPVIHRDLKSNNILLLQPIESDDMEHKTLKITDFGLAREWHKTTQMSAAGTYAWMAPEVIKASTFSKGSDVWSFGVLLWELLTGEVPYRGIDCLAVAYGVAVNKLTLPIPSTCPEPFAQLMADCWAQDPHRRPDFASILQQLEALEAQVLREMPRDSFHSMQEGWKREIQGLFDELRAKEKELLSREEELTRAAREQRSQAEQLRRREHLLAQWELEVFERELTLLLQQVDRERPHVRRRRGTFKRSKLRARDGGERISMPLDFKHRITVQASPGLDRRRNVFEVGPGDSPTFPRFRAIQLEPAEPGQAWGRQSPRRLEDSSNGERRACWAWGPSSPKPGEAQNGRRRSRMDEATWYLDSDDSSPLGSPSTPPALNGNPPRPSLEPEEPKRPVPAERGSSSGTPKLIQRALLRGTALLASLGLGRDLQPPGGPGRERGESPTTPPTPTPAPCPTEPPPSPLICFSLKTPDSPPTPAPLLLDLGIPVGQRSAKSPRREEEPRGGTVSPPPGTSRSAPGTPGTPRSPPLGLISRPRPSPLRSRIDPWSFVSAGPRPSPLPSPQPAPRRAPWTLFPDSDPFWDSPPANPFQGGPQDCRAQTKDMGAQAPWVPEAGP

MLK1 = MLK1 (Homo sapiens (Human), UniProt P80192); experiment: Evaluation of inhibitory activity of enzyme units, MLK1 ([γ-33P]-ATP filter assay); assay type: biochemical
MLK1, sequence (P80192 whole entry, looked up): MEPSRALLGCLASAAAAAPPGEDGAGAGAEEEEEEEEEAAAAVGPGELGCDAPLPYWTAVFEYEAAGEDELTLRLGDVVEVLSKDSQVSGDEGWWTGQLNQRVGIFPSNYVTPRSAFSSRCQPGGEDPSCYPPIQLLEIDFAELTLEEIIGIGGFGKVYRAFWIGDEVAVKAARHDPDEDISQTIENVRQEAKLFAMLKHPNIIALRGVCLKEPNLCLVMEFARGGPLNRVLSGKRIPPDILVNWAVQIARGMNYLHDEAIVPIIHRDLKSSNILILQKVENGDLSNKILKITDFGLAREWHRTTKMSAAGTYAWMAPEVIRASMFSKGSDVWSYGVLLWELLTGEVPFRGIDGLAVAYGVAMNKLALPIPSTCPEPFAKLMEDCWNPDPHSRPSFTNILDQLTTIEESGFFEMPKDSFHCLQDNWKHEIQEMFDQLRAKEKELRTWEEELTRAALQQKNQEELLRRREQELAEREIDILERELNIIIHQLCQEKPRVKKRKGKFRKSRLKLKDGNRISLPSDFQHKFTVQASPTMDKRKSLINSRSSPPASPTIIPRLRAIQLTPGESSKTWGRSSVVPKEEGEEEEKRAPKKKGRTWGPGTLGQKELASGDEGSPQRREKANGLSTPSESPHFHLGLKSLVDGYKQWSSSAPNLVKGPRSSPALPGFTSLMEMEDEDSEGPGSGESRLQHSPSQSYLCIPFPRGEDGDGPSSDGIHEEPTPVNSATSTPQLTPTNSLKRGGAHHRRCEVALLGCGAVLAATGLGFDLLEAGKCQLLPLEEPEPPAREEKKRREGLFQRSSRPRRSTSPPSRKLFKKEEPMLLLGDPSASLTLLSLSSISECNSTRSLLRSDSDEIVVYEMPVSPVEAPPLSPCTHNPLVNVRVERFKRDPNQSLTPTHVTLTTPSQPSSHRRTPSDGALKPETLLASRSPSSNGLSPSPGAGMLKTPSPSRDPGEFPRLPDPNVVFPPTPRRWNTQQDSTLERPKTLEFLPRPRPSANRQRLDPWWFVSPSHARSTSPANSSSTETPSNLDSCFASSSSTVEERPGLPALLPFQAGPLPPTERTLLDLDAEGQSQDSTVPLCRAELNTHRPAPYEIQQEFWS

[6] = 72 h, read-out: Cancer cell proliferation inhibitory activity Jurkat
[7] = 72 h, read-out: Cancer cell proliferation inhibitory activity Hs746T
[8] = A549, 72 h, read-out: Cancer cell proliferation inhibitory activity A549
[9] = U-937, 10 μM, 72 hours, CCK-8 (Table 3)
[10] = 10 μM, 72 hours, CCK-8, read-out: Cancer cell proliferation inhibitory activity Jurkat
[11] = 10 μM, 72 hours, CCK-8, read-out: Cancer cell proliferation inhibitory activity Hs746T
[12] = A549, 10 μM, 72 hours, CCK-8, read-out: Cancer cell proliferation inhibitory activity A549

| Compound | inhibition at 10 µM ([1]; U-937, 72 h) [%] | inhibition at 10 µM [2, 6] [%] | inhibition at 10 µM ([3]; 72 h) [%] | inhibition at 10 µM [4, 7] [%] | inhibition at 10 µM [5, 8] [%] | IC50 (MLK3) [nM] | IC50 (MLK1) [nM] | inhibition at 10 µM [1, 9] [%] | inhibition at 10 µM [2, 10] [%] | inhibition at 10 µM [4, 11] [%] | inhibition at 10 µM [5, 12] [%] | inhibition at 10 µM ([3]; 10 μM, 72 hours, CCK-8) [%] |
| --- | --- | --- | --- | --- | --- | --- | --- | --- | --- | --- | --- | --- |
| CCS(=O)(=O)N1CC[C@H](Nc2c(Br)cnc3[nH]c(-c4cc(C)n(-c5ccc(NS(C)(=O)=O)cc5C)c4C)nc23)C1 [Example 8, N-(4-(3-(6-bromo-7-(((S)-1-(ethylsulfonyl)pyrrolidine-3-yl)amino)-3H-imidazo[4,5-b]pyridine-2-yl)-2,5-dimethyl-1H-pyrrol-1-yl)-3-methylphenyl) methanesulfonamide] | > 50 | > 50 | > 50 | > 50 | > 50 | 7 |  |  |  |  |  |  |
| CCS(=O)(=O)N1CC[C@H](Nc2c(Br)cnc3[nH]c(-c4cc(C)n(-c5cccc(NS(C)(=O)=O)c5C)c4C)nc23)C1 [Example 9, N-(3-(3-(6-bromo-7-(((S)-1-(ethylsulfonyl)pyrrolidine-3-yl)amino)-3H-imidazo[4,5-b]pyridine-2-yl)-2,5-dimethyl-1H-pyrrol-1-yl)-2-methylphenyl) methanesulfonamide] | > 50 | > 50 | > 50 | > 50 | > 50 | 10 |  |  |  |  |  |  |
| CCS(=O)(=O)N1CC[C@H](Nc2c(Cl)cnc3[nH]c(-c4cc(C)n(-c5cc(NS(C)(=O)=O)ccc5C)c4C)nc23)C1 [Example 51, N-(3-(3-(6-chloro-7-(((S)-1-(ethylsulfonyl)pyrrolidine-3-yl)amino)-3H-imidazo[4,5-b]pyridine-2-yl)-2,5-dimethyl-1H-pyrrol-1-yl)-4-methylphenyl) methanesulfonamide] |  |  |  |  |  | 330 | 53 | > 50 | > 50 | > 50 | 10 to 50 |  |
| CCS(=O)(=O)N1CC[C@H](Nc2c(Cl)cnc3nc(-c4cc(C)n(-c5ccc(OCCN6CCOCC6)cc5)c4C)[nH]c23)C1 [Example 52, (S)-6-chloro-2-(2,5-dimethyl-1-(4-(2-morpholinoethoxy)phenyl)-1H-pyrrol-3-yl)-N-(1-(ethylsulfonyl)pyrrolidine-3-yl)-1H-imidazo[4,5-b]pyridine-7-amine] |  |  |  |  |  | 324 | 87 | > 50 | > 50 | > 50 | 10 to 50 |  |
| CCN(CC)CCNC(=O)c1cccc(-n2c(C)cc(-c3nc4ncc(Br)c(N[C@H]5CCN(S(=O)(=O)CC)C5)c4[nH]3)c2C)c1 [Example 56, (S)-3-(3-(6-bromo-7-((1-(ethylsulfonyl)pyrrolidine-3-yl)amino)-1H-imidazo[4,5-b]pyridine-2-yl)-2,5-dimethyl-1H-pyrrol-1-yl)-N-(2-(diethylamino)ethyl)benzamide] |  |  |  |  |  | 122 |  | > 50 | > 50 | > 50 | > 50 | > 50 |
| CCN(CC)CCNC(=O)c1ccc(-n2c(C)cc(-c3nc4ncc(Br)c(N[C@H]5CCN(S(=O)(=O)CC)C5)c4[nH]3)c2C)cc1 [Example 57, (S)-4-(3-(6-bromo-7-((1-(ethylsulfonyl)pyrrolidine-3-yl)amino)-1H-imidazo[4,5-b]pyridine-2-yl)-2,5-dimethyl-1H-pyrrol-1-yl)-N-(2-(diethylamino)ethyl)benzamide] | > 50 | > 50 | > 50 | > 50 | > 50 | 97 |  |  |  |  |  |  |
| CCS(=O)(=O)N1CC[C@H](Nc2c(Br)cnc3[nH]c(-c4cc(C)n(-c5ccc(C(=O)O)cc5)c4C)nc23)C1 [Example 59, (S)-4-(3-(6-bromo-7-((1-(ethylsulfonyl)pyrrolidine-3-yl)amino)-3H-imidazo[4,5-b]pyridine-2-yl)-2,5-dimethyl-1H-pyrrol-1-yl)benzoic acid] | 10 to 50 | 10 to 50 | < 10 | 10 to 50 | < 10 | 19 |  |  |  |  |  |  |
| CCS(=O)(=O)N1CC[C@H](Nc2c(Br)cnc3[nH]c(-c4cc(C)n(-c5cccc(C(=O)NCN(C)C)c5)c4C)nc23)C1 [Example 60, (S)-3-(3-(6-bromo-7-((1-(ethylsulfonyl)pyrrolidine-3-yl)amino)-3H-imidazo[4,5-b]pyridine-2-yl)-2,5-dimethyl-1H-pyrrol-1-yl)-N-((dimethylamino)methyl)benzamide] | > 50 | > 50 | > 50 | > 50 | > 50 | 27 |  |  |  |  |  |  |
| CCS(=O)(=O)N1CC[C@H](Nc2c(Br)cnc3[nH]c(-c4cc(C)n(-c5cccc(C(=O)N(C)CCN(C)C)c5)c4C)nc23)C1 [Example 61, (S)-3-(3-(6-bromo-7-((1-(ethylsulfonyl)pyrrolidine-3-yl)amino)-3H-imidazo[4,5-b]pyridine-2-yl)-2,5-dimethyl-1H-pyrrol-1-yl)-N-(2-(dimethylamino)ethyl)-N-methylbenzamide] | > 50 | > 50 | > 50 | > 50 | > 50 | 30 | 19 |  |  |  |  |  |
| CCS(=O)(=O)N1CC[C@H](Nc2c(Br)cnc3nc(-c4cc(C)n(-c5cccc(NC(=O)CN(C)C)c5)c4C)[nH]c23)C1 [Example 64, (S)—N-(3-(3-(6-bromo-7-((1-(ethylsulfonyl)pyrrolidine-3-yl)amino)-1H-imidazo[4,5-b]pyridine-2-yl)-2,5-dimethyl-1H-pyrrol-1-yl)phenyl)-2-(dimethylamino) acetamide] | > 50 | > 50 | > 50 | > 50 | > 50 | 14 | 34 |  |  |  |  |  |
| CCS(=O)(=O)N1CC[C@H](Nc2c(Br)cnc3nc(-c4cc(C)n(-c5cccc(NC(=O)CN6CCN(C)CC6)c5)c4C)[nH]c23)C1 [Example 65] | > 50 | > 50 | > 50 | > 50 | < 10 | 26 | 42 |  |  |  |  |  |
| CCS(=O)(=O)N1CC[C@H](Nc2c(Br)cnc3nc(-c4cc(C)n(-c5cccc(NC(=O)CN6CCOCC6)c5)c4C)[nH]c23)C1 [Example 66, (S)—N-(3-(3-(6-bromo-7-((1-(ethylsulfonyl)pyrrolidine-3-yl)amino)-1H-imidazo[4,5-b]pyridine-2-yl)-2,5-dimethyl-1H-pyrrol-1-yl)phenyl)-2-morpholinoacetamide] | 10 to 50 | > 50 | > 50 | > 50 | 10 to 50 | 17 | 22 |  |  |  |  |  |
| CCS(=O)(=O)N1CC[C@H](Nc2c(Br)cnc3nc(-c4cc(C)n(-c5cc(NC(=O)CCN(C)C)ccc5C)c4C)[nH]c23)C1 [Example 80] |  |  |  |  |  |  |  | > 50 | > 50 | > 50 | > 50 | > 50 |
